How the values were obtained:
[1] = system: human cell lysate (HEK293T); assay: IA-DTB chemoproteomics, proteome-wide engagement in lysate; assay type: binding; conditions: engaged peptides log2 CR ≤−1, P-value ≤0.05 vs DMSO
Description: HEK293T lysate supplemented with recombinant SspH1 (161–700) and SspH2 (166–783) was treated with a dilution series […] of either compound 6 or 7 for four hours at RT. Following compound treatments, we used an iodoacetamide-desthiobiotin (IA-DTB) competitive chemoproteomics workflow to assess cysteine engagement.[52] Comparison of DMSO treated lysate with compound treated lysate enabled identification of peptides where IA-DTB labelling of cysteines was blocked due to fragment engagement (Fig. S5). […] Competition of the SspH2 C580 peptide occurred at lower concentrations compared to the SspH1 C492 peptide, which corroborated our previous kinetics experiments that both compounds label SspH2 faster than SspH1 (Fig. S4).
A pellet of 50 × 10^6 HEK293T cells was resuspended in 5 mL lysis buffer (50 mM HEPES pH 8.0, 150 mM NaCl, 1% IGEPAL, 0.1% SDS, 0.5% Na-deoxycholate, supplemented with protease inhibitor cocktail (Sigma-Aldrich, P8340)). The lysate was sonicated and centrifuged (10 min, 17 000 × g) and the soluble fraction isolated. Protein concentrations were measured using a Rapid BCA Gold Protein Assay Kit (Thermo Scientific, A53226) and diluted to 0.75 mg mL^−1 with lysis buffer. The lysate was then spiked with 0.2 μM of each recombinant SspH1 (aa 161–700) and SspH2 (aa 166–783). […]

SspH1 (161–700) = SspH1 (161–700) (Salmonella typhimurium, UniProt D0ZVG2); assay: Round 1 intact protein LC-MS covalent fragment labelling screen and dilution series; assay type: binding; set-up: Recombinant IpaH9.8 (21–545) and SspH1 (161–700) were incubated at 0.5 μM; His-tag (N, cleaved yes); made in house; host or cells: E. coli BL21; conditions: 24 hours at 4 °C
Chain of SspH1 (161–700) (D0ZVG2 161-700): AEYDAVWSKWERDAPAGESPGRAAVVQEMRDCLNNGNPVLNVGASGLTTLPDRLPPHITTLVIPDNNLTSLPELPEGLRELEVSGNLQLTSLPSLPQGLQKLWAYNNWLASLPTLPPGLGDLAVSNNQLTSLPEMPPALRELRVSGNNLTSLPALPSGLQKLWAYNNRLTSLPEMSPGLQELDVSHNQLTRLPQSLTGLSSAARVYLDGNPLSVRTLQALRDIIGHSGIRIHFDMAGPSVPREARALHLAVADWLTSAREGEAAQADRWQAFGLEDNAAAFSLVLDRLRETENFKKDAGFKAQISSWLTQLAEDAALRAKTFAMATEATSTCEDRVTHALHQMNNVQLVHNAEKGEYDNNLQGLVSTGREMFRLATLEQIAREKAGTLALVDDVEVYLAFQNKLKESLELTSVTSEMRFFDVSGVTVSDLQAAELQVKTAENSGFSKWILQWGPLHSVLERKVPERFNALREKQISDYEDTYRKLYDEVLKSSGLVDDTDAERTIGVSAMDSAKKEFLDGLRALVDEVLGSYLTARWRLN
Description: A diverse library of 227 compounds with chloroacetamide warheads, featuring a diversity of molecular weight (162–321 Da) and clog P (−1.4 to 3.4) (Table S1), were screened against Salmonella and Shigella NEL E3 ligases using our intact protein liquid chromatography mass spectrometry (LC-MS) platform as previously described.[39,40] Briefly, recombinant SspH1 (161–700[30]) and IpaH9.8 (21–545[29]) (Fig. 1A and B) were incubated with 50 μM fragments for 24 hours at 4 °C before analysis by LC-MS (Fig. 1C). Raw counts were deconvoluted and the labelling percentage calculated by detection and comparison of protein and protein-fragment molecular weights.
Fig. 1 Intact protein LCMS screening of covalent fragment library against NEL proteins. (A) Cartoon depicting conserved NEL E3 ligase domains; (B) overlaid structures of SspH1 (blue, PDB 9H6W[30]) and IpaH9.8 (green, PDB 6LOL[29]) aligned on NEL domain; (C) workflow of covalent fragment screening using intact LC-MS; (D) fragment labelling percentages for SspH1 and IpaH9.8 with fragments 1–3 highlighted. Recombinant IpaH9.8 (21–545) and SspH1 (161–700) were incubated at 0.5 μM with 50 μM fragments for 24 hours at 4 °C, before fragment labelling was analysed by intact LC-MS; (E) chemical structures of fragments 1–3.
We next analysed the potency of compounds 4–10 against SspH1. The seven compounds were obtained as purified compounds (Table S2) and screened against SspH1 by intact LC-MS (Fig. 3A) with two-fold serial dilution (100–6.25 μM). To confirm which of the two cysteines in the SspH1 161–700 construct were labelled, we repeated the concentration response experiment with a catalytic cysteine mutant of SspH1 (C492K) (Fig. 3B). The complete abrogation of labelling confirmed that all […] compounds labelled the catalytic cysteine of SspH1.
1 μM IpaH9.8 or SspH1 were incubated with […] fragments for 24 hours at 4 °C, in 25 mM HEPES pH 7.5, 50 mM NaCl buffer. Intact protein LC-MS was performed as previously described.[40] The following deconvolution conditions were used for recombinant proteins studied in this work:
Dilution series experiments were performed as for 1st round screening. 1 μM OTUD4, OTUD5 or 0.5 μM HOIL, UbcH5A, SspH2, SspH1 C492K were incubated with 100–6.25 μM compounds for 24 hours at 4 °C, in 25 mM HEPES pH 7.5, 50 mM NaCl buffer. Intact protein LC-MS was performed as previously described.[40] The following deconvolution conditions were used for recombinant proteins studied in this work: […]

Structure (SMILES)	proteome-wide labelling in human cell lysate [1]	labelling of WT SspH1 (SspH1 (161–700); purified compound at 6.25 μM) [%]	labelling of WT SspH1 (SspH1 (161–700); purified compound at 12.5 μM) [%]
Cc1cc(-c2nc3ccccc3n2C2CCN(C(=O)CCl)CC2)cc(C)c1O.Cl [compound 6]	promiscuous protein labellers	> 60	> 80
Cl.O=C(CCl)N1CCC(n2c(-c3ccc(C(F)(F)F)cc3)nc3ccccc32)CC1 [compound 7]	promiscuous protein labellers	> 60	> 80

— publication PMC12584752, “Covalent fragment screening to inhibit the E3 ligase activity of bacterial NEL enzymes SspH1 and SspH2” (RSC Chemical Biology, 2025)
